#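 Five concentrations, 48 hours, 96-well plates. The concentration for 50% growth inhibition is given as GI50.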 Active and inactive are the calls of the source. Rule as the data show it: active = GI50 up to about 1.1 µM and inactive = higher.
# Key:
# Test in all cases: growth of human tumour cells (NCI), 48 h
# SF-539 = test system: SF-539
# Hs-578T = test system: Hs-578T
# SK-MEL-2 = test system: SK-MEL-2
# M14 = test system: M14
# MDA-N = test system: MDA-N
# SW-620 = test system: SW-620
# OVCAR-4 = test system: OVCAR-4
# SK-MEL-28 = test system: SK-MEL-28
# SK-OV-3 = test system: SK-OV-3
# UACC-62 = test system: UACC-62
# IGROV-1 = test system: IGROV-1
# SF-295 = test system: SF-295
# MDA-MB-231 = test system: MDA-MB-231
# SF-268 = test system: SF-268
# A549 = test system: A549
# OVCAR-3 = test system: OVCAR-3
# SR = test system: SR
# DU-145 = test system: DU-145
# BT-549 = test system: BT-549
# NCI-H226 = test system: NCI-H226
# OVCAR-8 = test system: OVCAR-8
# UO-31 = test system: UO-31
# SK-MEL-5 = test system: SK-MEL-5
# HOP-62 = test system: HOP-62
# A498 = test system: A498
# MCF7 = test system: MCF7
# Malme-3M = test system: Malme-3M
# HCT-116 = test system: HCT-116
# MOLT-4 = test system: MOLT-4
# KM12 = test system: KM12
# HL-60 = test system: HL-60
# PC-3 = test system: PC-3
# NCI-H23 = test system: NCI-H23
# T47D = test system: T47D
# EKVX = test system: EKVX
# 786-0 = test system: 786-0
# NCI-H522 = test system: NCI-H522
# CAKI-1 = test system: CAKI-1
# TK-10 = test system: TK-10
# COLO 205 = test system: COLO 205
# NCI/ADR-RES = test system: NCI/ADR-RES
# OVCAR-5 = test system: OVCAR-5
# RPMI-8226 = test system: RPMI-8226
# SN12C = test system: SN12C
# MDA-MB-435 = test system: MDA-MB-435
# HT-29 = test system: HT-29
# U-251 = test system: U-251
# HCT-15 = test system: HCT-15
# SNB-19 = test system: SNB-19
# ACHN = test system: ACHN
# HCC 2998 = test system: HCC 2998
# LOX IMVI = test system: LOX IMVI
# HOP-92 = test system: HOP-92
# NCI-H460 = test system: NCI-H460
# CCRF-CEM = test system: CCRF-CEM
# SNB-75 = test system: SNB-75
# RXF 393 = test system: RXF 393
# K562 = test system: K562
# UACC-257 = test system: UACC-257
smiles,measurement,setting,value
CC(C)(C)NCC(O)COc1cccc2[nH]c(C#N)cc12 (stereo not drawn) [CYANOPINDOLOL],GI50,SF-539,> 100 µM (inactive)
same,GI50,Hs-578T,> 100 µM (inactive)
same,GI50,SK-MEL-2,> 100 µM (inactive)
same,GI50,M14,> 100 µM (inactive)
same,GI50,MDA-N,> 100 µM (inactive)
same,GI50,SW-620,> 100 µM (inactive)
same,GI50,OVCAR-4,> 100 µM (inactive)
same,GI50,SK-MEL-28,> 100 µM (inactive)
same,GI50,SK-OV-3,> 100 µM (inactive)
same,GI50,UACC-62,> 100 µM (inactive)
same,GI50,IGROV-1,> 100 µM (inactive)
same,GI50,SF-295,> 100 µM (inactive)
same,GI50,MDA-MB-231,> 100 µM (inactive)
same,GI50,SF-268,> 100 µM (inactive)
same,GI50,A549,> 100 µM (inactive)
same,GI50,OVCAR-3,> 100 µM (inactive)
same,GI50,SR,> 100 µM (inactive)
same,GI50,DU-145,> 100 µM (inactive)
same,GI50,BT-549,> 100 µM (inactive)
same,GI50,NCI-H226,> 100 µM (inactive)
same,GI50,OVCAR-8,> 100 µM (inactive)
same,GI50,UO-31,> 100 µM (inactive)
same,GI50,SK-MEL-5,> 100 µM (inactive)
same,GI50,HOP-62,> 100 µM (inactive)
same,GI50,A498,68.1 µM (inactive)
same,GI50,MCF7,> 100 µM (inactive)
same,GI50,Malme-3M,> 100 µM (inactive)
same,GI50,HCT-116,> 100 µM (inactive)
same,GI50,MOLT-4,> 100 µM (inactive)
same,GI50,KM12,> 100 µM (inactive)
same,GI50,HL-60,> 100 µM (inactive)
same,GI50,PC-3,> 100 µM (inactive)
same,GI50,NCI-H23,> 100 µM (inactive)
same,GI50,T47D,> 100 µM (inactive)
same,GI50,EKVX,> 100 µM (inactive)
same,GI50,786-0,> 100 µM (inactive)
same,GI50,NCI-H522,27.2 µM (inactive)
same,GI50,CAKI-1,> 100 µM (inactive)
same,GI50,TK-10,84.5 µM (inactive)
same,GI50,COLO 205,56 µM (inactive)
same,GI50,NCI/ADR-RES,> 100 µM (inactive)
same,GI50,OVCAR-5,> 100 µM (inactive)
same,GI50,RPMI-8226,> 100 µM (inactive)
same,GI50,SN12C,> 100 µM (inactive)
same,GI50,MDA-MB-435,> 100 µM (inactive)
same,GI50,HT-29,> 100 µM (inactive)
same,GI50,U-251,> 100 µM (inactive)
same,GI50,HCT-15,> 100 µM
same,GI50,SNB-19,> 100 µM (inactive)
same,GI50,ACHN,> 100 µM (inactive)
CC1=NC(=Cc2cc(Br)cc(Br)c2)C(=O)N1n1c(-c2ccccc2)nc2ccccc2c1=O,GI50,SF-539,> 100 µM (inactive)
same,GI50,Hs-578T,> 100 µM (inactive)
same,GI50,SK-MEL-2,> 100 µM (inactive)
same,GI50,M14,> 100 µM (inactive)
same,GI50,MDA-N,> 100 µM (inactive)
same,GI50,SW-620,> 100 µM (inactive)
same,GI50,HCC 2998,> 100 µM (inactive)
same,GI50,OVCAR-4,> 100 µM (inactive)
same,GI50,SK-MEL-28,> 100 µM (inactive)
same,GI50,LOX IMVI,> 100 µM (inactive)
same,GI50,HOP-92,> 100 µM (inactive)
same,GI50,SK-OV-3,> 100 µM (inactive)
same,GI50,UACC-62,> 100 µM (inactive)
same,GI50,IGROV-1,> 100 µM (inactive)
same,GI50,SF-295,> 100 µM (inactive)
same,GI50,MDA-MB-231,> 100 µM (inactive)
same,GI50,SF-268,> 100 µM (inactive)
same,GI50,A549,> 100 µM (inactive)
same,GI50,NCI-H460,> 100 µM (inactive)
same,GI50,OVCAR-3,> 100 µM (inactive)
same,GI50,SR,55.2 µM (inactive)
same,GI50,DU-145,> 100 µM (inactive)
same,GI50,BT-549,> 100 µM (inactive)
same,GI50,CCRF-CEM,> 100 µM (inactive)
same,GI50,NCI-H226,> 100 µM (inactive)
same,GI50,OVCAR-8,> 100 µM (inactive)
same,GI50,UO-31,> 100 µM (inactive)
same,GI50,SNB-75,> 100 µM (inactive)
same,GI50,SK-MEL-5,> 100 µM (inactive)
same,GI50,HOP-62,> 100 µM (inactive)
same,GI50,MCF7,> 100 µM (inactive)
same,GI50,Malme-3M,> 100 µM (inactive)
same,GI50,HCT-116,> 100 µM (inactive)
same,GI50,MOLT-4,> 100 µM (inactive)
same,GI50,RXF 393,> 100 µM (inactive)
same,GI50,KM12,> 100 µM (inactive)
same,GI50,HL-60,> 100 µM (inactive)
same,GI50,PC-3,> 100 µM (inactive)
same,GI50,NCI-H23,> 100 µM (inactive)
same,GI50,T47D,> 100 µM (inactive)
same,GI50,EKVX,> 100 µM (inactive)
same,GI50,786-0,> 100 µM (inactive)
same,GI50,NCI-H522,> 100 µM (inactive)
same,GI50,CAKI-1,> 100 µM (inactive)
same,GI50,K562,> 100 µM (inactive)
same,GI50,TK-10,> 100 µM (inactive)
same,GI50,COLO 205,> 100 µM (inactive)
same,GI50,NCI/ADR-RES,> 100 µM (inactive)
same,GI50,UACC-257,> 100 µM (inactive)
same,GI50,OVCAR-5,> 100 µM (inactive)
same,GI50,RPMI-8226,> 100 µM (inactive)
same,GI50,SN12C,> 100 µM (inactive)
same,GI50,MDA-MB-435,72.3 µM (inactive)
same,GI50,HT-29,> 100 µM (inactive)
same,GI50,U-251,> 100 µM (inactive)
same,GI50,HCT-15,> 100 µM
same,GI50,SNB-19,> 100 µM (inactive)
same,GI50,ACHN,> 100 µM (inactive)
CCCCCCSc1nc(COC(=O)NC)c(COC(=O)NC)n1C,GI50,SF-539,> 100 µM (inactive)
same,GI50,Hs-578T,> 100 µM (inactive)
same,GI50,SK-MEL-2,> 100 µM (inactive)
same,GI50,M14,> 100 µM (inactive)
same,GI50,MDA-N,> 100 µM (inactive)
same,GI50,SW-620,> 100 µM (inactive)
same,GI50,OVCAR-4,> 100 µM (inactive)
same,GI50,SK-MEL-28,> 100 µM (inactive)
same,GI50,LOX IMVI,> 100 µM (inactive)
same,GI50,SK-OV-3,> 100 µM (inactive)
same,GI50,UACC-62,> 100 µM (inactive)
same,GI50,IGROV-1,> 100 µM (inactive)
same,GI50,SF-295,> 100 µM (inactive)
same,GI50,MDA-MB-231,> 100 µM (inactive)
same,GI50,SF-268,> 100 µM (inactive)
same,GI50,A549,> 100 µM (inactive)
same,GI50,NCI-H460,> 100 µM (inactive)
same,GI50,OVCAR-3,> 100 µM (inactive)
same,GI50,SR,> 100 µM (inactive)
same,GI50,DU-145,> 100 µM (inactive)
same,GI50,BT-549,> 100 µM (inactive)
same,GI50,CCRF-CEM,> 100 µM (inactive)
same,GI50,NCI-H226,> 100 µM (inactive)
same,GI50,OVCAR-8,> 100 µM (inactive)
same,GI50,UO-31,> 100 µM (inactive)
same,GI50,SNB-75,> 100 µM (inactive)
same,GI50,SK-MEL-5,> 100 µM (inactive)
same,GI50,HOP-62,> 100 µM (inactive)
same,GI50,A498,> 100 µM (inactive)
same,GI50,MCF7,> 100 µM (inactive)
same,GI50,HCT-116,> 100 µM (inactive)
same,GI50,MOLT-4,> 100 µM (inactive)
same,GI50,KM12,> 100 µM (inactive)
same,GI50,HL-60,> 100 µM (inactive)
same,GI50,PC-3,> 100 µM (inactive)
same,GI50,NCI-H23,> 100 µM (inactive)
same,GI50,T47D,> 100 µM (inactive)
same,GI50,EKVX,> 100 µM (inactive)
same,GI50,786-0,> 100 µM (inactive)
same,GI50,NCI-H522,> 100 µM (inactive)
same,GI50,CAKI-1,> 100 µM (inactive)
same,GI50,K562,> 100 µM (inactive)
same,GI50,TK-10,> 100 µM (inactive)
same,GI50,COLO 205,> 100 µM (inactive)
same,GI50,NCI/ADR-RES,> 100 µM (inactive)
same,GI50,UACC-257,> 100 µM (inactive)
same,GI50,OVCAR-5,> 100 µM (inactive)
same,GI50,RPMI-8226,> 100 µM (inactive)
same,GI50,SN12C,> 100 µM (inactive)
same,GI50,MDA-MB-435,> 100 µM (inactive)
same,GI50,HT-29,> 100 µM (inactive)
same,GI50,U-251,> 100 µM (inactive)
same,GI50,HCT-15,> 100 µM
same,GI50,SNB-19,> 100 µM (inactive)
same,GI50,ACHN,> 100 µM (inactive)

# — ChEMBL document CHEMBL1201862, “PubChem BioAssay data set” (2004)
